According to patent US10961245B2, “Substituted heterocycle fused gamma-carbolines for treatment of central nervous system disorders” (INTRA-CELLULAR THERAPIES, INC., priority 2016, dated 2021):

Experiments:
μ(MOP) (h) receptor = molecular target: T1, μ(MOP) (h) receptor (Homo sapiens, UniProt P35372); assay: Cellular functional assay, μ (MOP) (h) antagonist effect (cAMP, HTRF); assay type: cell-based
T1 construct: expressed in transfected cells; host or cells: CHO cells
Experimental: Cellular and Nuclear Receptor Functional Assays are performed on the compounds of Formula II-B and according to the procedure of Wang, J. B. et al. (1994), FEBS Lett., 338:217-222. The compounds are tested at several concentrations to determine their IC50 or EC50.
Cellular agonist effects are calculated as percent of control response to a known reference agonist for each target and cellular antagonist effect is calculated as a percent inhibition of control reference agonist response for each target.
The following assay is performed to determine the effect of the Compound of Formula on the μ(MOP) (h) receptor: […]
The results are expressed as a percent of control agonist response: […]
and as a percent inhibition of control agonist response:
The EC50 values (concentration producing a half-maximal response) and IC50 values (concentration causing a half-maximal inhibition of the control agonist response) are determined by non-linear regression analysis of the concentration-response curves generated with mean replicate values using Hill equation curve fitting:
[formula] where Y=response, A=left asymptote of the curve, D=right asymptote of the curve, C=compound concentration, and C50=EC50 or IC50, and nH=slope factor. The analysis is performed using software developed in-house and validated by comparison with data generated by the commercial software SigmaPlot® 4.0 for Windows® (© 1997 by SPSS Inc.).
For the antagonists, the apparent dissociation constants (KB) are calculated using the modified Cheng Prusoff equation:
[formula] where A=concentration of reference agonist in the assay, and EC50A=EC50 value of the reference agonist.

5-HT2A = 5-HT2A (Homo sapiens, UniProt P28223); assay: Receptor binding 5-HT2A; settings: read-out: Ki (nM) or maximum inhibition
5-HT2A, sequence (P28223 whole entry): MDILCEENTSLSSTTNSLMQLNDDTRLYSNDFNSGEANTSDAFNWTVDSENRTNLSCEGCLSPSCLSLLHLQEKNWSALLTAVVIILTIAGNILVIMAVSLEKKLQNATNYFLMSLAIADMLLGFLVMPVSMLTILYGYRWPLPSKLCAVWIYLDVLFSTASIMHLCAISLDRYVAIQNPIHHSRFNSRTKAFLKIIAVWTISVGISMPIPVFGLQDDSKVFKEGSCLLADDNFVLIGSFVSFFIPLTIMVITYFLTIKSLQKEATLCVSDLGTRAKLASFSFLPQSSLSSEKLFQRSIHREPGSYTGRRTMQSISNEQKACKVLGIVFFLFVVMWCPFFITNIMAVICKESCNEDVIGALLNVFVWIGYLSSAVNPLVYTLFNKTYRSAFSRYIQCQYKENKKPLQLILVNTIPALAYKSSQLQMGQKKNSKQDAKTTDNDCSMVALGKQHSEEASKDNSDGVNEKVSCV
Experimental: (§1) Receptor binding is determined for the Compounds of Formulas II-A and II-B using the tosylate salt of the compound of Formula A as a control. The following literature procedures are used, each of which reference is incorporated herein by reference in their entireties:
(§2) In general, the results are expressed as a percent of control specific binding:
(§3) [formula] and as a percent inhibition of control specific binding: […]
(§4) The IC50 values (concentration causing a half-maximal inhibition of control specific binding) and Hill coefficients (nH) are determined by non-linear regression analysis of the competition curves generated with mean replicate values using Hill equation curve fitting:
(§5) [formula] where Y=specific binding, A=left asymptote of the curve, D=right asymptote of the curve, C=compound concentration, C50=IC50, and nH=slope factor. This analysis was performed using in-house software and validated by comparison with data generated by the commercial software SigmaPlot® 4.0 for Windows® (© 1997 by SPSS Inc.). The inhibition constants (Ki) were calculated using the Cheng Prusoff equation:
(§6) [formula] where L=concentration of radioligand in the assay, and KD=affinity of the radioligand for the receptor. A Scatchard plot is used to determine the KD.

SERT = SERT (Homo sapiens, UniProt P31645); assay: Receptor binding SERT; settings: read-out: Ki (nM) or maximum inhibition
SERT, sequence (P31645 whole entry, species assumed): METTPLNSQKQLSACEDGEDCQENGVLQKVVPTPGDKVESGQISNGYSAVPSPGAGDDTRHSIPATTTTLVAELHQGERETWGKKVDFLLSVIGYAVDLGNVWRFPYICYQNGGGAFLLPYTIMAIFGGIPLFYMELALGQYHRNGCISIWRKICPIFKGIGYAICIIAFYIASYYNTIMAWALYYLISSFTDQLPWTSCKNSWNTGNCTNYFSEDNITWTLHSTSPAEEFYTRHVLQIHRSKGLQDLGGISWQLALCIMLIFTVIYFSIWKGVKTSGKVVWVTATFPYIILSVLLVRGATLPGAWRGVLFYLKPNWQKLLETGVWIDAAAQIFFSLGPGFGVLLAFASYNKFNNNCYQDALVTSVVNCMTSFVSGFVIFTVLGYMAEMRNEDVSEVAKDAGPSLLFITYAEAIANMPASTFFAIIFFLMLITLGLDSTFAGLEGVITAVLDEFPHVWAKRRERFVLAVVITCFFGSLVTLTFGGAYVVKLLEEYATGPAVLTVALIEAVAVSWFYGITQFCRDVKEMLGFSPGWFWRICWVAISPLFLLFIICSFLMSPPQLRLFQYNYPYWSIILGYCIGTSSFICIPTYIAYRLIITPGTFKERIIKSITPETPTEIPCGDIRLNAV
Experimental: as §1
SERT: Park, Y. M. et al. (1999), Anal. Biochem., 269:94-104.
as §2, §3, §4, §5, §6

Mu opiate receptor = Mu opiate receptor (Homo sapiens, UniProt P35372); assay: Receptor binding Mu opiate receptor; settings: read-out: Ki (nM) or maximum inhibition
Mu opiate receptor, sequence (P35372 whole entry): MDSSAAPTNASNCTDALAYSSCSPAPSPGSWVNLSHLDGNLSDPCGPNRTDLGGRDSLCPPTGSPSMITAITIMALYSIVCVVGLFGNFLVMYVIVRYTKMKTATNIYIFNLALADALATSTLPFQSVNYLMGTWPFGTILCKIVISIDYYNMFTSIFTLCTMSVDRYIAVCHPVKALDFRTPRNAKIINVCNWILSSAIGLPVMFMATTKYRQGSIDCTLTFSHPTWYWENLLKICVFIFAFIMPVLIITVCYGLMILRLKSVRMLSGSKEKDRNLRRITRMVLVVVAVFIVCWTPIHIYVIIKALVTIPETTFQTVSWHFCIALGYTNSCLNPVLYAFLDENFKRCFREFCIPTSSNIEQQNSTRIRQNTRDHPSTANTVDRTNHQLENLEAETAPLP
Experimental: as §1
Mu opiate receptor: Wang, J. B. et al. (1994), FEBS Lett., 338:217-222.
as §2, §3, §4, §5, §6

D1 = D1 (Homo sapiens, UniProt P21728); assay: Receptor binding D1; settings: read-out: Ki (nM) or maximum inhibition
D1, sequence (P21728 whole entry): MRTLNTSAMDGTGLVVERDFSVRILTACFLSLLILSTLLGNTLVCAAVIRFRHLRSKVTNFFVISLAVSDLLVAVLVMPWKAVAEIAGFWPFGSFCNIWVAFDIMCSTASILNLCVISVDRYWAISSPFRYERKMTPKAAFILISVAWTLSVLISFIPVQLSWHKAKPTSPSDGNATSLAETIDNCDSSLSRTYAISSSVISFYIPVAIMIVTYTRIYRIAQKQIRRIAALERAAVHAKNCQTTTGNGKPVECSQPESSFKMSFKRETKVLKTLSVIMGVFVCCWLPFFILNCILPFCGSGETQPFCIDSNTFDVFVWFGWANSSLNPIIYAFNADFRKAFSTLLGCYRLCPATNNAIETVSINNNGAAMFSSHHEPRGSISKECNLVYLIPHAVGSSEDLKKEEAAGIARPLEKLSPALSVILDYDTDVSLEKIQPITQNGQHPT
Experimental: as §1, §2, §3, §4, §5, §6

T1 sequence (P35372 whole entry): as the sequence (P35372 whole entry) above

| SMILES | IC50 (μ(MOP) (h) receptor; human recombinant CHO cells, DAMGO (20 nM) stimulus, cAMP) [nM] | Kb (μ(MOP) (h) receptor; modified Cheng Prusoff equation, DAMGO (20 nM), read-out: μ(MOP) (h) (antagonist effect) KB (apparent dissociation constant)) [nM] | Ki (5-HT2A) [nM] | inhibition at 1 µM (SERT) [%] | Ki (Mu opiate receptor) [nM] | IC50 (μ(MOP) (h) receptor; unit inferred, highest concentration tested) [nM] | Ki (D1) [nM] |
| --- | --- | --- | --- | --- | --- | --- | --- |
| CN1C(=O)CN2c3c(cccc31)[C@@H]1CN(CCCC(=O)c3ccncc3)CC[C@@H]12 [Formula II-B] | 1300 | 140 |  |  |  |  |  |
| O=C1CN2c3c(cccc3[C@@H]3CN(CCCC(=O)c4ccncc4)CC[C@@H]32)N1 [Formula II-C] |  |  | 37 | 40 | 400 | > 10000 | 470 |
